Test results taken from patent publication US9180163B2, “Parstatin peptides” (priority 2009, dated 2015).
Ends that are not written are not given here.

What was measured:
[1] = test system: myocardial ischemia-reperfusion injury in Sprague Dawley rats; conditions: for infarct size, inhibitor alone: without parstatin (1-26), L-NMA 15 μg/Kg, ODQ 1 mg/kg, glibenclamide 3 mg/kg, atractyloside 3 mg/Kg
Method: Parstatin (1-41) was used in an in vivo rat model of cardiac ischemia and reperfusion, and in an in vitro isolated rat heart model of ischemia-reperfusion injury.
For in vivo infarct size studies, rats were anesthetized with pentobarbital sodium (50 mg/Kg) and heparin (1000 IU/Kg) and underwent 30 min of regional ischemia followed by 120 min of reperfusion. Parstatin (1-41) was administered-intravenously over 1 min starting 15 min prior to ischemia, or 15 min after the onset of ischemia, or 10 seconds after the onset of reperfusion in separate series of experiments (n=6/group).
To induce ischemia, ligature was positioned around the left main coronary artery and threaded through a plastic snare to permit reversible occlusion of the coronary artery. Coronary occlusion was induced by clamping the snare onto the heart and reperfusion was achieved by releasing the snare. At the end of reperfusion, the coronary artery was re-occluded and the risk zone was delineated by perfusion of 0.5% Evans' blue into the aortic cannula. Hearts were sectioned and incubated in 1% triphenyltetrazolium chloride in phosphate buffer for 15 min to define white necrotic tissue when fixed in 10% formalin for 24 h. Area at risk (AAR) and infarct-to-risk rations were determined by computerized planimetry using J-Image v.i.6 software (NIH, Bethesda, Mass.).
For in vivo infarct size/ischemia-reperfusion studies, rats were anesthetized with pentobarbital sodium (50 mg/Kg) and heparin (1000 IU/Kg) and underwent 30 min of regional ischemia followed by 120 min of reperfusion. Human hydrophobic parstatin (1-26) fragment was administered intravenously over 1 min at one of three time points: 1) starting 15 min prior to ischemia, 2) 15 min after the onset of ischemia, or 3) 10 seconds after the onset of reperfusion in a separate series of experiments (n=6/group).
Ischemia was induced by placement of a ligature around the left main coronary artery which was threaded through a plastic snare to permit reversible occlusion of the coronary artery. Coronary occlusion was induced by clamping the snare onto the heart and reperfusion was achieved by releasing the snare. At the end of reperfusion, the coronary artery was re-occluded and the risk zone was delineated by perfusion 0.5% Evans' blue into the aortic cannula.
Hearts were sectioned and incubated in 1% triphenyltetrazolium chloride in phosphate buffer for 15 min to define white necrotic tissue when fixed in 10% formalin for 24 h. Area at risk (AAR) and infarct-to-risk rations were determined by computerized planimetry using J-Image v.i.6 software (NIH, Bethesda, Mass.). The principal endpoint of these studies was infarct size expressed as a percentage of the area at risk.

isolated rat hearts = assay: isolated rat heart ischemia-reperfusion; conditions: for infarct size / LVDP, inhibitor alone: without parstatin (1-41), L-NMA 100 μM, ODQ 10 μM
Method: For in vitro studies, excised hearts were retrogradely perfused through the aorta with a modified Krebs buffer. Coronary flow rate was determined by timed collection of the coronary effluent. A saline-filled latex balloon connected to a pressure transducer was inserted into the left […] (LV), and baseline end-diastolic pressure was set at 5-10 mmHg. Heart rate, LV end-diastolic pressure and LV developed pressures (LVDP) were recorded continuously. The measurements for post-ischemic recovery of LVDP used for comparison were taken at 180 min of reperfusion. After stabilization for 15-20 min, the hearts (n=6/group) were subjected to 30 min of regional ischemia, followed by 180 min of reperfusion. Different concentrations of […] (1-41) were perfused 15 min prior to coronary occlusion until occlusion. Control hearts produced an infarct size of 51±3% of the area at risk (FIG. 19A). […] A picture representation of infarct in control versus […] Similarly, […] (1-41) increased recovery of LVDP in a concentration-dependent manner (FIG. 19B). Again, the optimal concentration was 1 μM which produced a 23% recovery of LVDP (FIG. 19B).

[2] = test system: retinal neovascularization in C57BL/6 mice; type: in vivo; conditions: mouse, in vivo
Excerpt: Parstatin (1-41), hydrophobic parstatin (1-26) fragment and hydrophilic parstatin (24-41) fragment were used in an in vivo mouse model of retinal neovascularization. In particular, oxygen-induced retinopathy was used to generate retinal neovascularization as a preclinical disease model for retinopathy of prematurity and other retinal neovascular diseases such as diabetic retinopathy. In this model, exposing newborn mice to hyperoxia prompts regression or delay of retinal vascular development, followed by abnormal angiogenesis after their return to normal oxygen levels. Mainly, this model mirrors the events that occur during retinopathy of prematurity, when infants are removed from oxygen-rich incubators, a condition involving pathological neovascularization that can affect premature infants and result in permanent visual loss. In recent years, the use of this model has been extended to the general study of ischemic vasculopathies, such us diabetic retinopathy, and related antiangiogenic interventions, and it is now used extensively in both basic and applied research environments.
Pathogen-free C57BL/6 mice were treated in accordance with the Association for Research in Vision and Ophthalmology Statement for the Use of Animals in Ophthalmic and Vision Research and the guidelines of the Animal Care and Use Committee at local University Medical School. Litters of 7-day old (P7) mice were exposed to an atmosphere of 75% oxygen in an airtight incubator for 5 days (P12), after which they were returned to room air for 5 days (P17). For quantification of oxygen-induced retinal neovascularization, mice on P17 were given an intraocular injection of 1 μl of rat anti-mouse platelet endothelial cell adhesion molecule-1 (PECAM-1) antibody (Pharmingen, San Jose, Calif.) under a dissecting microscope with Harvard pump microinjection apparatus. Mice were euthanized 12 hours after injection and eyes were fixed in PBS-buffered formalin for 5 hours. […] Retinal flat mounts were prepared and assessed with fluorescence microscope using imaging software. […]

[3] = test system: choroidal neovascularization in C57BL/6J mice; type: in vivo; conditions: mouse, in vivo
Method: Parstatin (1-41), hydrophobic parstatin (1-26) fragment and hydrophilic parstatin (24-41) fragment were used in an in vivo mouse model of choroidal neovascularization. In particular, laser photocoagulation-induced rupture of Bruch's membrane was used to generate choroidal neovascularization as a preclinical disease model for age-related macular degeneration. Pathogen-free C57BL/6J (4-5 week-old) mice were treated in accordance with the Association for Research in Vision and Ophthalmology Statement for the Use of Animals in Ophthalmic and Vision Research and the guidelines of the Animal Care and Use Committee at local University Medical School.
C57BL/6J (4-5 week-old) mice were anesthetized with ketamine hydrochloride (100 mg/kg body weight) and xylazine-(4 mg/Kg body weight) and the pupils were dilated with 1% tropicamide. Laser photocoagulation (75 μm spot size, 0.1 sec duration, 120 mW) was performed in the 9, 12, and 3 o'clock positions of the posterior pole of the retina with the slit lamp delivery system of an Oculight GL diode laser (Index, Mountain View, Calif.) and a handheld cover slip as a contact lens to view the retina. Production of a bubble at the time of laser, which indicates rupture of Bruch's membrane, is an important factor in obtaining CNV. Therefore, only burns in which a bubble was produced were included in the study. Two weeks after rupture of Bruch's membrane, anesthetized mice were perfused with 50 mg/ml fluorescein-labelled-dextran (2×10^6 average molecular weight, Sigma-Aldrich, St. Louis, Mo.). The eyes were then dissected and fixed in 10% Formalin for 3 hours and choroidal flat mounts were examined by fluorescence microscopy. Image-Pro Plus software (Media Cybernetics, Silver Spring, Md.) was used to measure the total area of CNV at each rupture site by personnel blinded as to study treatments and groups.
Intraocular injections of parstatin peptides were performed with a Harvard pump microinjection apparatus and pulled glass micropipets. […] Choroidal neovascularization was assessed 14 days after laser treatment.

[4] = test system: Erk1/2 (p42/44 MAPK) in HUVEC cells; assay: Erk1/2 phosphorylation immunoblot (MAP kinase pathway); type: cell-based, human; conditions: pretreatment 1 h, 10 μM; stimulated by FBS, bFGF or VEGF
Method: The MAPK (Erk1/2, p42/44) cascade mediates mitogenesis. […] HUVEC cells were cultured in 35 mm tissue culture dishes. After reaching 80% confluency, cells were growth factor-starved and subsequently stimulated for 10 min with vehicle or indicated agents. In combination experiments, cells were pretreated with parstatin or other peptides for 10 to 60 min.
Attached cells were lysed with Laenmli sample buffer, resolved in 10% SDS-PAGE, and transferred to nitrocellulose membranes. Membranes were incubated with primary antibodies against phospho p42/44 mitogen-activated protein kinases (p-Erk1/2, New England Biolabs, UK) and p42/44 Erk1/2 (t-Erk1/2, New England Biolabs, UK). Membranes were then probed with secondary antibodies horseradish peroxidase-conjugated, and proteins were visualized by chemiluminescent detection.

HUVEC cells = assay: [3H]-thymidine incorporation (DNA synthesis); type: cell-based, human; conditions: 10 μM, bFGF 5 ng/ml
Method: The ability of parstatin (1-41) to inhibit DNA synthesis of endothelial cells was assessed in thymidine incorporation assays. HUVEC cells were grown until 60-80% confluent in 24-well plates. Cells were treated with indicated peptides in serum-free medium containing either 0.5% BSA, or VEGF, or bFGF, or medium containing 5% FBS, or epidermal growth factor (EGF), or heparin-binging EGF (HB-EGF) for 18 hours. All cells were pulsed with 0.5 μCi/ml [3H]-thymidine (ICN Biomedicals Inc., Irvine Calif.) for additional 6 h. Radioactivity incorporated into DNA was determined in liquid scintillation counter.

Row | Compound | infarct size, inhibitor alone [1] | infarct size / LVDP, inhibitor alone (isolated rat hearts) | also measured
1 | COC(=O)[C@@H](N)CCCNC(=N)N[N+](=O)[O-] [L-NMA, Nω-nitro-L-arginine methyl ester, reference compound] | without effect | no effect | 
2 | MGPRRLLLVAACFSLCGPLLSARTRARRPESKATNATLDPR (cysteines drawn unpaired) [parstatin (1-41)] |  |  | tolerability in newborn mice [2]: not well tolerated; tolerability (slit lamp: irritation, inflammation, ocular toxicity; systemic toxicity) [3]: well tolerated; baseline hemodynamics (heart rate, blood pressures) between groups ([1]; rat, in vivo): no significant differences; inotropic or chronotropic effects before ischemia (isolated rat hearts; 1 μM): did not have inotropic or chronotropic effects
3 | O=c1onc2cnc3ccccc3n12 [ODQ, 1H-[1,2, 4]oxadiazolo-[4,3-a]quinoxalin-1-one, reference compound] | no effect | no effect | 
4 | COc1ccc(Cl)cc1C(=O)NCCc1ccc(S(=O)(=O)NC(=O)NC2CCCCC2)cc1 [Glibenclamide, glibenclamide, reference compound] | no effect |  | 
5 | C=C1[C@@H]2CC[C@H]3[C@]4(C)C[C@H](O[C@@H]5O[C@H](CO)[C@@H](OS(=O)(=O)O)[C@H](OS(=O)(=O)O)[C@H]5OC(=O)CC(C)C)C[C@@H](C(=O)O)[C@H]4CC[C@]3(C2)[C@H]1O [Atractyloside, atractyloside, reference compound] | no effect |  | 
6 | MGPRRLLLVAACFSLCGPLL-SARALTRSAPTPRDRANKETR (MGPRRLLLVAACFSLCGPLLSARALTRSAPTPRDRANKETR; Scrambled synthetic peptide) [modulated parstatin, human parstatin with amino acids 24 to 41 scrambled] |  |  | activation of Erk1/2 [4]: inhibit; bFGF-induced DNA synthesis (HUVEC cells): inhibit
